Reference: US9206209B2, “Nucleotide analogue, method of synthesis of nucleotide analogue, use of nucleotide analogue, antiviral pro-nucleotide, pharmaceutical composition” (priority 2010, dated 2015)
Where two headings read alike, the source gives them in different places.

Experiments:
HIV [1] = tested on: HIV; design: SI50: unit not given beside the values; conditions: *Estimated in cells CEM-T4; Baba M. et al. 1987; cited from earlier work
CEM-T4 cells [2] = conditions: cited from earlier work
HIV [3] = tested on: HIV; design: SI50: unit not given beside the values; conditions: **Imbach J-L. et al. 1994; cited from earlier work
CEM-T4 cells [4] = test: Cytotoxicity determination (MTT test, 7 days); format: cell-based
Protocol: (§1) Cytotoxicity and anti-HIV activity of the compounds (XVIa-c) described above were examined in CEM-T4 cells according procedures described below.
(§2) Cytotoxicity determination—CC50 and CC90 parameters—For determination of compounds (XVIa-c) cytotoxicity CEM-T4 and CEM-A were cultured in standard conditions (37° C., 5% CO2) on 96 wells culture plates in media RPMI/FCS 10% (v/v). Experiments were carried out in media contained tested compounds in concentrations of appropriate range. Cultures in neat medium (RPMI, 10% FCS) were used as a control ones. Viability of cells were determined after 7 days using MTT test in which to each well of culture plate were added 10 μL of MTT solution (5 mg/mL) and cultures were incubated 3 hours in temperature 37° C. After centrifugation supernatant was removed and DMSO was added to lyse the cells and to dissolve crystals of farmazan. Measurement of colour intensity was done using a plate reader (λ560 nm).
(§3) Cytotoxicity calculation—reference absorbancy (K) was an average of measurements for five well of culture plate and accounts for 100% CEM-T4 or CEM-A cells viability. In each case absorbancy for cells cultured in media enriched with tested compounds was calculated as average of at least three measurements.
(§4) Cells viability (P) were calculated according to formula:
(§5) [formula] in which P—viability of cells, K—reference absorbancy, A—absorbancy for cells cultured in media enriched with tested compounds, T—absorbancy for neat medium (RPMI/10% FBS). On the basis of calculations graph showing dependence of viability and concentrations of tested compounds values of CC50 and CC90 were determined

HIV [5] = test: Anti-HIV activity (inhibition of HIV replication, viral protein p24) in CEM-T4 cells; format: cell-based; conditions: for EC90: 90% inhibition of HIV replication; for SI50: selectivity index, CC50 vs EC50, CEM-T4 cells
Protocol: as §1
Anti HIV activity (EC50 and EC90)—parameter EC50 is defined as concentration of compounds in which replication of HIV is inhibited by 50% and parameter EC90 is defined as concentration of compounds in which replication of HIV is inhibited by 90%. To determine these parameters CEM-T4 cells were preincubated 24 hours in standard conditions (37° C., 5% CO2) in standard medium [RPMI, FCS 10% (v/v)] enriched with tested compounds in concentrations in range 0.001-20 μM. Incubations were performed with 96 flat bottom wells culture plates. In each well 20000 cells were suspended in solution of tested compound (200 μL). For each concentration four cultures were done. As a reference, media containing AZT in concentration 1.25 μM, 2.5 μM, 5.0 μM, 10.0 μM, 20 μM were used. As a positive control of maximal replication of HIV, culture in neat standard medium [RPMI/FCS 10% (v/v)] was used. After 24 hours of incubation in medium enriched with tested compound and AZT, cells were inoculated with known amount of HIV and cultivation was continued 8 days and after this the amount of viral protein p24 (marker of HIV replication) was measured. Inhibition of HIV replication is presented as percentage of p24 content in culture performed with media containing tested compound and assuming that amount of p24 measured in control correspond 100% of HIV replication. The examinations of each tested substance for each concentration were run in triplicate.

[6] = Cytotoxicity determination (MTT test, 7 days); format: cell-based; conditions: human, CEM-T4 cells
Protocol: as §1, §2, §3, §4, §5

## Nc1ncnc2c1ncn2[C@H]1CC[C@@H](CO)O1 [ddA, 2′,3′-dideoxyadenosine]
HIV [1]
  EC50: 2500 nM
  SI50: >>100*
CEM-T4 cells [2]; *Estimated in cells CEM-T4, Baba M. et al. 1987
  CC50: > 250000 nM

## OC[C@@H]1CC[C@H](n2cnc3c(O)ncnc32)O1 [ddI, 2′,3′-dideoxyinosine]
HIV [3]
  EC50: 1100 nM
  SI50: >>91**

## Cc1cn([C@H]2C[C@H](N=[N+]=[N-])[C@@H](COP(=O)(O)Nc3ccncc3)O2)c(=O)[nH]c1=O [(XVITc)]
CEM-T4 cells [4]
  CC50: > 190000 nM
  CC90: > 190000 nM
HIV [5]; CEM-T4 cells, p24 after 8 days
  EC90: 6 nM
HIV [5]
  SI50: >>19000

## O=c1ccn([C@H]2CC[C@@H](CO)O2)c(=O)[nH]1 [ddU, 2′,3′-dideoxyuridine]
HIV [1]
  EC50: 48000 nM
  SI50: >5.2*
CEM-T4 cells [2]
  CC50: > 250000 nM

## Cc1cn([C@H]2C[C@H](N=[N+]=[N-])[C@@H](CO)O2)c(=O)[nH]c1=O [AZT, 3′-azido-3′-deoxythymidine]
[6]
  CC50 at 7 days: 60000 nM
HIV [5]; Human immunodeficiency virus 1, 192 h, CEM-T4 cells, 50% inhibition of HIV replication, p24 after 8 days
  EC50: 1.1 nM
HIV [5]; Human immunodeficiency virus 1, 192 h, CEM-T4 cells, p24 after 8 days
  EC90: 16 nM
HIV [5]
  SI50: 6000
